Measured values as given in patent US20260167656A1, “PHOSPHORAMIDATE COMPOUNDS AND USES THEREOF” (ALLORION THERAPEUTICS INC, priority 2022, published 2026).

How the values were obtained:
[1] = tested on: non-small cell lung cancer cell line H460; assay: In vitro human cancer cell line cytotoxicity (proliferation) assay in H460, CellTiter-Glo, 72 hours; type: cell-based; details: H460 cells, DMSO condition (no AKR1C3 inhibitor), read-out: CTG H460: Avg IC50 (nM) [Assay Condition: DMSO]
Method: Biological Example 1. In Vitro Human Cancer Cell Line Cytotoxicity Assay
IC50 values in nanomolar reported here were derived from in vitro proliferation assay data in non-small cell lung cancer cell line H460.
(§1) Specifically, exponentially growing cells were seeded at density of 3×10^3 cells per well in 96-well plate and incubated at 37° C. in 5% CO2, 95% air and 100% relative humidity for 24 hours before adding compounds. Compounds were solubilized in 100% DMSO at 10 mM. Compounds were added to the plate using Tecan D300e® digital Dispenser. After drug addition, the plates were incubated for an additional 72 hours at 37° C. in 5% CO2, 95% air and 100% relative humidity. At the end of the incubation, cell viability was quantified with CellTiter-Glo® assay.

[2] = tested on: non-small cell lung cancer cell line H460; assay: H460 proliferation assay in the presence of 3 uM ASP9521 (AKR1C3 specific inhibitor); type: cell-based, human; details: H460 cells, CellTiter-Glo, 72 hours, in the presence of 3 uM ASP9521 added 4 hours prior to compounds; read-out: CTG H460: Avg IC50 (nM) [Assay Condition: ASP9521]
Method: as §1
To further confirm that compounds were activated by human AKR1C3, H460 proliferation assay were also performed in the presence of 3 uM […], an AKR1C3 specific inhibitor. ASP9521 were added to the plates 4 hours prior to the addition of compounds.

CN(C)C(=O)c1cccc(Oc2c([N+](=O)[O-])ccc3c2CCC3OP(=O)(N2CC2)N2CC2)c1 (single isomer, unassigned) [Example 32]
IC50 ([1]; Homo sapiens, NCI-H460, 72 h): < 10 nM
IC50 [2]: 145 nM

CN(C)C(=O)c1cccc(Oc2c([N+](=O)[O-])ccc3c2CCC3OP(=O)(N2CC2)N2CC2)c1 (single isomer, unassigned) [Example 33]
IC50 [1]: < 10 nM
IC50 [2]: 476 nM

O=C1c2cc(Oc3c([N+](=O)[O-])ccc4c3CC[C@H]4OP(=O)(N3CC3)N3CC3)ccc2CN1C1CC1 (single isomer, unassigned) [Example 38]
IC50 ([1]; Homo sapiens, NCI-H460, 72 h): < 10 nM
IC50 [2]: 537 nM

O=C1c2cc(Oc3c([N+](=O)[O-])ccc4c3CC[C@@H]4OP(=O)(N3CC3)N3CC3)ccc2CN1C1CC1 (single isomer, unassigned) [Example 39]
IC50 ([1]; Homo sapiens, NCI-H460, 72 h): < 10 nM
IC50 [2]: 561 nM

O=[N+]([O-])c1ccc2c(c1Oc1ccc(-c3ccccn3)cc1)CC[C@@H]2OP(=O)(N1CC1)N1CC1 (single isomer, unassigned) [Example 40]
IC50 ([1]; Homo sapiens, NCI-H460, 72 h): < 10 nM
IC50 [2]: 929 nM

O=[N+]([O-])c1ccc2c(c1Oc1ccc(-c3ccccn3)cc1)CC[C@H]2OP(=O)(N1CC1)N1CC1 (single isomer, unassigned) [Example 41]
IC50 ([1]; Homo sapiens, NCI-H460, 72 h): < 10 nM
IC50 [2]: 1090 nM

CN1Cc2cc(Oc3c([N+](=O)[O-])ccc4c3CCC4OP(=O)(N3CC3)N3CC3)ccc2C1=O (single isomer, unassigned) [Example 42]
IC50 ([1]; Homo sapiens, NCI-H460, 72 h): < 10 nM
IC50 [2]: 123 nM

CN1Cc2cc(Oc3c([N+](=O)[O-])ccc4c3CCC4OP(=O)(N3CC3)N3CC3)ccc2C1=O (single isomer, unassigned) [Example 43]
IC50 [1]: < 10 nM
IC50 [2]: 314 nM

O=[N+]([O-])c1ccc2c(c1Oc1ccc(-c3cccnc3)cc1)CCC2OP(=O)(N1CC1)N1CC1 (single isomer, unassigned) [Example 54]
IC50 [1]: < 10 nM
IC50 [2]: 516 nM

Cn1cc(-c2ccc(Oc3c([N+](=O)[O-])ccc4c3CCC4OP(=O)(N3CC3)N3CC3)cc2)cn1 (single isomer, unassigned) [Example 58]
IC50 [1]: 50 to 100 nM
IC50 [2]: 1010 nM

Cn1cc(-c2ccc(Oc3c([N+](=O)[O-])ccc4c3CCC4OP(=O)(N3CC3)N3CC3)cc2)cn1 (single isomer, unassigned) [Example 59]
IC50 [1]: < 10 nM
IC50 [2]: 1360 nM

Cn1c(=O)oc2ccc(Oc3c([N+](=O)[O-])ccc4c3CCC4OP(=O)(N3CC3)N3CC3)cc21 (single isomer, unassigned) [Example 64]
IC50 ([1]; Homo sapiens, NCI-H460, 72 h): < 10 nM
IC50 [2]: 722 nM

Cn1c(=O)oc2ccc(Oc3c([N+](=O)[O-])ccc4c3CCC4OP(=O)(N3CC3)N3CC3)cc21 (single isomer, unassigned) [Example 65]
IC50 [1]: < 10 nM
IC50 [2]: 279 nM

O=C(c1cccc(Oc2c([N+](=O)[O-])ccc3c2CCC3OP(=O)(N2CC2)N2CC2)c1)N1CCCCC1 (single isomer, unassigned) [Example 68]
IC50 ([1]; Homo sapiens, NCI-H460, 72 h): < 10 nM
IC50 [2]: 1160 nM

O=C(c1cccc(Oc2c([N+](=O)[O-])ccc3c2CCC3OP(=O)(N2CC2)N2CC2)c1)N1CCCCC1 (single isomer, unassigned) [Example 69]
IC50 [1]: < 10 nM
IC50 [2]: 573 nM

Cn1cc(-c2cccc(Oc3c([N+](=O)[O-])ccc4c3CCC4OP(=O)(N3CC3)N3CC3)c2)cn1 (single isomer, unassigned) [Example 76]
IC50 ([1]; Homo sapiens, NCI-H460, 72 h): 10 to 50 nM
IC50 [2]: 1120 nM

Cn1cc(-c2cccc(Oc3c([N+](=O)[O-])ccc4c3CCC4OP(=O)(N3CC3)N3CC3)c2)cn1 (single isomer, unassigned) [Example 77]
IC50 [1]: < 10 nM
IC50 [2]: 1890 nM

O=C(c1cccc(Oc2c([N+](=O)[O-])ccc3c2CCC3OP(=O)(N2CC2)N2CC2)c1)N1CCOCC1 (single isomer, unassigned) [Example 125]
IC50 ([1]; Homo sapiens, NCI-H460, 72 h): < 10 nM
IC50 [2]: 766 nM

O=C(c1cccc(Oc2c([N+](=O)[O-])ccc3c2CCC3OP(=O)(N2CC2)N2CC2)c1)N1CCOCC1 (single isomer, unassigned) [Example 126]
IC50 [1]: < 10 nM
IC50 [2]: 159 nM

CN(C)C(=O)c1ccc(Oc2c([N+](=O)[O-])ccc3c2OCCC3OP(=O)(N2CC2)N2CC2)cc1 (single isomer, unassigned) [Example 130]
IC50 ([1]; Homo sapiens, NCI-H460, 72 h): 10 to 50 nM
IC50 [2]: 389 nM

CN(C)C(=O)c1ccc(Oc2c([N+](=O)[O-])ccc3c2OCCC3OP(=O)(N2CC2)N2CC2)cc1 (single isomer, unassigned) [Example 131]
IC50 [1]: < 10 nM
IC50 [2]: 314 nM

O=C1c2cc(Oc3c([N+](=O)[O-])ccc4c3OCCC4OP(=O)(N3CC3)N3CC3)ccc2CN1C1CC1 (single isomer, unassigned) [Example 138]
IC50 ([1]; Homo sapiens, NCI-H460, 72 h): < 10 nM
IC50 [2]: 579 nM

O=C1c2cc(Oc3c([N+](=O)[O-])ccc4c3OCCC4OP(=O)(N3CC3)N3CC3)ccc2CN1C1CC1 (single isomer, unassigned) [Example 139]
IC50 [1]: < 10 nM
IC50 [2]: 839 nM

CN(C)C(=O)c1ccc(Oc2cc3c(cc2[N+](=O)[O-])CCC3OP(=O)(N2CC2)N2CC2)cc1 (single isomer, unassigned) [Example 140]
IC50 ([1]; Homo sapiens, NCI-H460, 72 h): < 10 nM
IC50 [2]: 436 nM

CN(C)C(=O)c1ccc(Oc2cc3c(cc2[N+](=O)[O-])CCC3OP(=O)(N2CC2)N2CC2)cc1 (single isomer, unassigned) [Example 141]
IC50 [1]: < 10 nM
IC50 [2]: 366 nM

CNC(=O)c1ccc(Oc2cc3c(cc2[N+](=O)[O-])CCC3OP(=O)(N2CC2)N2CC2)cc1 (single isomer, unassigned) [Example 150]
IC50 ([1]; Homo sapiens, NCI-H460, 72 h): < 10 nM
IC50 [2]: 297 nM

CNC(=O)c1ccc(Oc2cc3c(cc2[N+](=O)[O-])CCC3OP(=O)(N2CC2)N2CC2)cc1 (single isomer, unassigned) [Example 151]
IC50 [1]: < 10 nM
IC50 [2]: 306 nM

O=[N+]([O-])c1cc2c(cc1Oc1ccc(-c3ccccc3)cc1)C(OP(=O)(N1CC1)N1CC1)CC2 (single isomer, unassigned) [Example 152]
IC50 ([1]; Homo sapiens, NCI-H460, 72 h): < 10 nM
IC50 [2]: 1400 nM

O=[N+]([O-])c1cc2c(cc1Oc1ccc(-c3ccccc3)cc1)C(OP(=O)(N1CC1)N1CC1)CC2 (single isomer, unassigned) [Example 153]
IC50 [1]: < 10 nM
IC50 [2]: 477 nM

O=[N+]([O-])c1cc2c(cc1Oc1cccc(-c3ccccc3)c1)C(OP(=O)(N1CC1)N1CC1)CC2 (single isomer, unassigned) [Example 168]
IC50 ([1]; Homo sapiens, NCI-H460, 72 h): < 10 nM
IC50 [2]: 755 nM

O=[N+]([O-])c1cc2c(cc1Oc1cccc(-c3ccccc3)c1)C(OP(=O)(N1CC1)N1CC1)CC2 (single isomer, unassigned) [Example 169]
IC50 [1]: < 10 nM
IC50 [2]: 766 nM

O=C1c2cc(Oc3cc4c(cc3[N+](=O)[O-])CCC4OP(=O)(N3CC3)N3CC3)ccc2CN1C1CC1 (single isomer, unassigned) [Example 170]
IC50 ([1]; Homo sapiens, NCI-H460, 72 h): < 10 nM
IC50 [2]: 801 nM

O=C1c2cc(Oc3cc4c(cc3[N+](=O)[O-])CCC4OP(=O)(N3CC3)N3CC3)ccc2CN1C1CC1 (single isomer, unassigned) [Example 171]
IC50 [1]: < 10 nM
IC50 [2]: 1100 nM

O=C(NC1CC1)c1ccc(Oc2cc3c(cc2[N+](=O)[O-])CCC3OP(=O)(N2CC2)N2CC2)cc1 (single isomer, unassigned) [Example 172]
IC50 ([1]; Homo sapiens, NCI-H460, 72 h): 10 to 50 nM
IC50 [2]: 4900 nM

O=C(NC1CC1)c1ccc(Oc2cc3c(cc2[N+](=O)[O-])CCC3OP(=O)(N2CC2)N2CC2)cc1 (single isomer, unassigned) [Example 173]
IC50 [1]: < 10 nM
IC50 [2]: 2980 nM

O=[N+]([O-])c1cc2c(cc1Oc1ccc(-c3ccccn3)cc1)C(OP(=O)(N1CC1)N1CC1)CC2 (single isomer, unassigned) [Example 188]
IC50 ([1]; Homo sapiens, NCI-H460, 72 h): < 10 nM
IC50 [2]: 2070 nM

O=[N+]([O-])c1cc2c(cc1Oc1ccc(-c3ccccn3)cc1)C(OP(=O)(N1CC1)N1CC1)CC2 (single isomer, unassigned) [Example 189]
IC50 [1]: < 10 nM
IC50 [2]: 1190 nM

CN1Cc2ccc(Oc3cc4c(cc3[N+](=O)[O-])OCCC4OP(=O)(N3CC3)N3CC3)cc2C1=O (single isomer, unassigned) [Example 201]
IC50 ([1]; Homo sapiens, NCI-H460, 72 h): < 10 nM
IC50 [2]: 605 nM

CN1Cc2ccc(Oc3cc4c(cc3[N+](=O)[O-])OCCC4OP(=O)(N3CC3)N3CC3)cc2C1=O (single isomer, unassigned) [Example 202]
IC50 [1]: < 10 nM
IC50 [2]: 1390 nM

O=C1c2cc(Oc3cc4c(cc3[N+](=O)[O-])OCCC4OP(=O)(N3CC3)N3CC3)ccc2CN1C1CC1 (single isomer, unassigned) [Example 203]
IC50 ([1]; Homo sapiens, NCI-H460, 72 h): < 10 nM
IC50 [2]: 959 nM

O=C1c2cc(Oc3cc4c(cc3[N+](=O)[O-])OCCC4OP(=O)(N3CC3)N3CC3)ccc2CN1C1CC1 (single isomer, unassigned) [Example 204]
IC50 [1]: 10 to 50 nM
IC50 [2]: 1550 nM

CC(OP(=O)(N1C[C@@H]1C)N1C[C@@H]1C)c1ccc([N+](=O)[O-])c(Oc2cccc(C(=O)N(C)C)c2)c1 (single isomer, unassigned) [Example 209]
IC50 ([1]; Homo sapiens, NCI-H460, 72 h): < 10 nM
IC50 [2]: 517 nM
